Reference: article PMC9574855 (Journal of Medicinal Chemistry, 2022)

What was measured:
[1] = tested on: 403 WT human kinases; assay: DiscoverX scanMAX kinome-wide selectivity at 1 μM; format: binding
[2] = tested on: lentivirus pseudotyped with the SARS-CoV-2 spike glycoprotein; format: cell-based; conditions: Calu-3 cells, 1 μM
[3] = tested on: bald GFP lentivirus; format: cell-based; conditions: Calu-3 cells, 1 μM
[4] = target: T1, PIKfyve (Homo sapiens, UniProt Q9Y2I7); assay: cell-based
[5] = tested on: SH-SY5Y cells; assay: Lysosomal staining; format: cell-based, human; conditions: 5 μM, 24 h
[6] = tested on: His6-SARS-CoV-2 spike protein uptake by HEK293T-ACE2 cells; assay: Spike uptake assay in HEK293T-ACE2 cells; format: cell-based, human; conditions: 1 μM
[7] = tested on: His6-SARS-CoV-2 spike protein uptake by Calu-3 cells; assay: Spike uptake assay in Calu-3 cells; format: cell-based; conditions: 1 μM
[8] = tested on: DBT cells; assay: LDH cell viability assay in DBT cells; format: cell-based, mouse; conditions: up to 10 μM
[9] = target: T2, MYLK4 (Homo sapiens, UniProt Q86YV6); assay: NanoBRET assay; format: cell-based
T2 sequence (Q86YV6 1-388): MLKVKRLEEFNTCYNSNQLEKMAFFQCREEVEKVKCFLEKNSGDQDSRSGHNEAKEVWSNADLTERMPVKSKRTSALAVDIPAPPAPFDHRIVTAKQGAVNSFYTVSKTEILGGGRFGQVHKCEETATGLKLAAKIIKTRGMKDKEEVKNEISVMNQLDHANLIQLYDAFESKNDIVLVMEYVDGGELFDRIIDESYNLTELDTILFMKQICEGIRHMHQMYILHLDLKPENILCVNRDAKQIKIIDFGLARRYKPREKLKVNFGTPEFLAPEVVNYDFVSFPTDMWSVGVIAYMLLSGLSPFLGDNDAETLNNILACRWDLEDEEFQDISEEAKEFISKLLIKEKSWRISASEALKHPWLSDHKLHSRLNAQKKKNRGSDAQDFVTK

[10] = target: T1, PIKfyve; assay: biochemical; format: biochemical
[11] = tested on: His6-SARS-CoV-2 spike protein uptake by Caco-2 cells; assay: Spike uptake assay in Caco-2 cells; format: cell-based; conditions: 1 μM
[12] = tested on: MHV-nLuc virus; assay: microbe, parasite or virus in culture; format: cell-based, mouse hepatitis virus (MHV); conditions: for IC50: Murine coronavirus, read-out: MHV replication pIC50 (converted); for inhibition of viral replication (MHV-nLuc), in words: DBT cells
[13] = tested on: SARS-CoV-2-nLuc; assay: microbe, parasite or virus in culture; format: cell-based
[14] = tested on: small panel of understudied kinases; assay: Eurofins enzymatic profiling in targeted kinase panel; format: biochemical, human; conditions: 1 μM, Table S2 panel
[15] = tested on: A549-ACE2 cells; conditions: LDH assay
[16] = PIKfyve NB IC50, NanoBRET, HEK293 cells

T1 sequence (Q9Y2I7 whole entry): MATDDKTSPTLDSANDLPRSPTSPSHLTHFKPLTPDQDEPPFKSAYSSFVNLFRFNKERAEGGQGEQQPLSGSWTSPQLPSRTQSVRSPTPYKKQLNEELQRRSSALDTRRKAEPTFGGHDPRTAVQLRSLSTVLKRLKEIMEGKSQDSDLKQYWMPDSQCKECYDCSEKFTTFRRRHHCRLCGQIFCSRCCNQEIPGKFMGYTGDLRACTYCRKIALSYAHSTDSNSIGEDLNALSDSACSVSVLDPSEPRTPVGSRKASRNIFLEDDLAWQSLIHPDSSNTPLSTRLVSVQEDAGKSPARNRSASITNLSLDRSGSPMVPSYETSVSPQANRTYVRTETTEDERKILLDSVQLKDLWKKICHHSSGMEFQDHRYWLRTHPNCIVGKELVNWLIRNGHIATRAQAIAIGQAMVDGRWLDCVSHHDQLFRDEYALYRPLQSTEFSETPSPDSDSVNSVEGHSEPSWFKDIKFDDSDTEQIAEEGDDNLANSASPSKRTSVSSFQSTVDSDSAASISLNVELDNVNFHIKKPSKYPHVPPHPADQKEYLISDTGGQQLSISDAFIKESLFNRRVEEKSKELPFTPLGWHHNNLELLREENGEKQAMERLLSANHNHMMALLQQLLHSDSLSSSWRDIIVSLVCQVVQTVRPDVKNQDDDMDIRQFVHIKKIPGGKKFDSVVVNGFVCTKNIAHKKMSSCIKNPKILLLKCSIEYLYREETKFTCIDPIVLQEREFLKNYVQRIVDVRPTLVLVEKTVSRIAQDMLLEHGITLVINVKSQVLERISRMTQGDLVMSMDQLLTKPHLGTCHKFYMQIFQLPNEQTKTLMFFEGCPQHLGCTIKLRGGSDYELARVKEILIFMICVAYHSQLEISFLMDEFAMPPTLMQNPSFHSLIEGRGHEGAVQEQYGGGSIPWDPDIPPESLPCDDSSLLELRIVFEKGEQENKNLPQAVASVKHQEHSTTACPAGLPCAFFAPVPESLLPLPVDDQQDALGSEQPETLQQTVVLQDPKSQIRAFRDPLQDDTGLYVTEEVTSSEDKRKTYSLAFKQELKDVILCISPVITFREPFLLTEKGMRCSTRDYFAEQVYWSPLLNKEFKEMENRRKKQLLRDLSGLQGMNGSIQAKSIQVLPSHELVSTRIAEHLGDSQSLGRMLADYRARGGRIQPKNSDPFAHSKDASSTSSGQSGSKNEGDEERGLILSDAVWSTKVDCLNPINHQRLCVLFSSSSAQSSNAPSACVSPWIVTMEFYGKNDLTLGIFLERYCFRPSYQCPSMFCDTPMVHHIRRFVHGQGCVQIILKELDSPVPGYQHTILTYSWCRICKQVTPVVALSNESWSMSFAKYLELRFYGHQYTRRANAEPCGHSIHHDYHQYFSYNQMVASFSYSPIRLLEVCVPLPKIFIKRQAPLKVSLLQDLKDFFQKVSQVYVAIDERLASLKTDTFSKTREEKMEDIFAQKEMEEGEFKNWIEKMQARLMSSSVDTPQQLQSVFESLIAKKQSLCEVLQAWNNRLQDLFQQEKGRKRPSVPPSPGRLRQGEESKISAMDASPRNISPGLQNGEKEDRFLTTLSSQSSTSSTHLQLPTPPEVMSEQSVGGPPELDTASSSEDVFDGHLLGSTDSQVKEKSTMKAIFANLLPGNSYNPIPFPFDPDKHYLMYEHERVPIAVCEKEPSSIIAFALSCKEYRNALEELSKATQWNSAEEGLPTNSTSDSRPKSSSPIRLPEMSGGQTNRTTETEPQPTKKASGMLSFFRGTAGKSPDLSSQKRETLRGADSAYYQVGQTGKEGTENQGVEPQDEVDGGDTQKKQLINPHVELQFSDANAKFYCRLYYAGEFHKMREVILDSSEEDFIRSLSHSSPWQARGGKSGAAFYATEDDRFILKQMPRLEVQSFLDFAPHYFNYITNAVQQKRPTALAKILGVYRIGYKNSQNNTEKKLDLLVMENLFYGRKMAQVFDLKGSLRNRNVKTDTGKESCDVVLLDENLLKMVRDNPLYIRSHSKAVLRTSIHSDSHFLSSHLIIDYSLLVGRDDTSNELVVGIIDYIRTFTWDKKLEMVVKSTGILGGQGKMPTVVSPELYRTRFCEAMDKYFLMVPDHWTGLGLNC

Nc1ncc2c(n1)-c1c([nH]c3ccc(C#Cc4ccncc4)cc13)CCCC2 [compound 6, 12-(Pyridin-4-ylethynyl)-6,7,8,9-tetrahydro-5H-pyrimido[4′,5′:3,4]cycloocta[1,2-b]indol-2-amine]
# scanMAX kinases with PoC < 10 [1]: 0

Cn1cncc1C#Cc1ccc2[nH]c3c(c2c1)-c1nc(N)ncc1CCCC3 [compound 27, 12-((1-Methyl-1H-imidazol-5-yl)ethynyl)-6,7,8,9-tetrahydro-5H-pyrimido[4′,5′:3,4]cycloocta[1,2-b]indol-2-amine]
# scanMAX kinases with PoC < 10 [1]: 0

CC(C)(O)C#Cc1ccc2[nH]c3c(c2c1)-c1nc(N)ncc1CC3 [compound 1, 4-(2-Amino-6,7-dihydro-5H-pyrimido[5,4-c]carbazol-10-yl)-2-methylbut-3-yn-2-ol]
# scanMAX kinases with PoC < 10 [1]: 20

CC(C)(O)CC#Cc1ccc2[nH]c3c(c2c1)-c1nc(N)ncc1CCC3 [compound 24, 5-(2-Amino-5,6,7,8-tetrahydropyrimido[4′,5′:3,4]cyclohepta[1,2-b]indol-11-yl)-2-methylpent-4-yn-2-ol]
# scanMAX kinases with PoC < 10 [1]: 11–14

CC(C)C(O)C#Cc1ccc2[nH]c3c(c2c1)-c1nc(N)ncc1CC3 (stereo not shown) [compound 10, 1-(2-Amino-6,7-dihydro-5H-pyrimido[5,4-c]carbazol-10-yl)-4-methylpent-1-yn-3-ol]
# scanMAX kinases with PoC < 10 [1]: 11

Nc1ncc2c(n1)-c1c([nH]c3ccc(C#Cc4ccncc4)cc13)CCC2 [compound 5, 11-(Pyridin-4-ylethynyl)-5,6,7,8-tetrahydropyrimido[4′,5′:3,4]cyclohepta[1,2-b]indol-2-amine]
# scanMAX kinases with PoC < 10 [1]: 5

COC(C)(C)C#Cc1ccc2[nH]c3c(c2c1)-c1nc(N)ncc1CCC3 [compound 20, 11-(3-Methoxy-3-methylbut-1-yn-1-yl)-5,6,7,8-tetrahydropyrimido[4′,5′:3,4]cyclohepta[1,2-b]indol-2-amine]
# scanMAX kinases with PoC < 10 [1]: 11–14

Nc1ncc2c(n1)-c1c([nH]c3ccc(-c4ccc(F)cc4)cc13)CC2 [compound 7, 10-(4-Fluorophenyl)-6,7-dihydro-5H-pyrimido[5,4-c]carbazol-2-amine]
# scanMAX kinases with PoC < 10 [1]: 3

CC(C)C(O)C#Cc1ccc2[nH]c3c(c2c1)-c1nc(N)ncc1CCC3 (stereo not shown) [compound 11, 1-(2-Amino-5,6,7,8-tetrahydropyrimido[4′,5′:3,4]cyclohepta[1,2-b]indol-11-yl)-4-methylpent-1-yn-3-ol]
# scanMAX kinases with PoC < 10 [1]: 7

CN(C)CC#Cc1ccc2[nH]c3c(c2c1)-c1nc(N)ncc1CCC3 [compound 17, 11-(3-(Dimethylamino)prop-1-yn-1-yl)-5,6,7,8-tetrahydropyrimido[4′,5′:3,4]cyclohepta[1,2-b]indol-2-amine]
entry of lentivirus pseudotyped with SARS-CoV-2 spike glycoprotein [2]: inhibition of pseudoviral entry | entry of bald lentivirus [3]: entry of bald lentivirus was not impacted | IC50 ([4]; PIKfyve NanoBRET IC50, bound stated with SGC probe criteria): < 1000 nM | vacuoles in LysoTracker-stained cells [5]: vacuoles are present | His6-SARS-CoV-2 spike protein uptake [6]: significantly reduced spike protein uptake | His6-SARS-CoV-2 spike protein uptake [7]: efficiently reduced spike protein uptake | effect on cell viability in DBT cells [8]: no significant effect on cell viability up to 10 μM | IC50 [9]: 265 nM | IC50 [10]: < 100 nM | His6-SARS-CoV-2 spike protein uptake [11]: efficiently reduced spike protein uptake

CC(C)(C#Cc1ccc2[nH]c3c(c2c1)-c1nc(N)ncc1CCC3)CO [compound 23, 4-(2-Amino-5,6,7,8-tetrahydropyrimido[4′,5′:3,4]cyclohepta[1,2-b]indol-11-yl)-2,2-dimethylbut-3-yn-1-ol]
# scanMAX kinases with PoC < 10 [1]: 11–14

CCC(O)(C#Cc1ccc2[nH]c3c(c2c1)-c1nc(N)ncc1CCC3)CC [compound 26, 1-(2-Amino-5,6,7,8-tetrahydropyrimido[4′,5′:3,4]cyclohepta[1,2-b]indol-11-yl)-3-ethylpent-1-yn-3-ol]
IC50 [4, 16]: < 20 nM | IC50 [12]: 0.0741 µM | IC50 ([13]; Severe acute respiratory syndrome coronavirus 2, A549-ACE2, 46 h, read-out: SARS-CoV-2 replication IC50): 23.9 nM

CC(C)(O)C#Cc1ccc2[nH]cc(-c3ccnc(N)n3)c2c1 [compound 3, 4-(3-(2-Aminopyrimidin-4-yl)-1H-indol-5-yl)-2-methylbut-3-yn-2-ol]
# scanMAX kinases with PoC < 10 [1]: 34

Nc1ncc2c(n1)-c1c([nH]c3ccc(-c4ccc(F)cc4)cc13)CCCC2 [compound 9, 12-(4-Fluorophenyl)-6,7,8,9-tetrahydro-5H-pyrimido[4′,5′:3,4]cycloocta[1,2-b]indol-2-amine]
# scanMAX kinases with PoC < 10 [1]: 2

CN(C)CC#Cc1ccc2[nH]c3c(c2c1)-c1nc(N)ncc1CCCC3 [compound 29, 12-(3-(Dimethylamino)prop-1-yn-1-yl)-6,7,8,9-tetrahydro-5H-pyrimido[4′,5′:3,4]cycloocta[1,2-b]indol-2-amine]
# scanMAX kinases with PoC < 10 [1]: 0

CCC(=O)Nc1cc(Nc2cc(NC3CC3)n3ncc(C#N)c3n2)ccc1C [SGC-CK2-1, reference compound]
His6-SARS-CoV-2 spike protein uptake [6]: efficiently decreased spike protein uptake

Nc1ncc2c(n1)-c1c([nH]c3ccc(-c4ccc(F)cc4)cc13)CCC2 [compound 8, 11-(4-Fluorophenyl)-5,6,7,8-tetrahydropyrimido[4′,5′:3,4]cyclohepta[1,2-b]indol-2-amine]
entry of lentivirus pseudotyped with SARS-CoV-2 spike glycoprotein [2]: inhibition of pseudoviral entry | entry of bald lentivirus [3]: entry of bald lentivirus was not impacted | inhibition of viral replication (MHV-nLuc), in words [12]: inhibited viral replication | vacuoles in LysoTracker-stained cells [5]: vacuoles are present | His6-SARS-CoV-2 spike protein uptake [6]: significantly reduced spike protein uptake | # scanMAX kinases with PoC < 10 [1]: 2 | effect on cell viability in DBT cells [8]: no significant effect on cell viability up to 10 μM | highest inhibition of any kinase in the targeted enzymatic panel [14]: ≤ 55% | selectivity over all other kinases evaluated ([10]; versus PIKfyve enzymatic and NanoBRET IC50 values): > 415 fold

CCC(C)(O)C#Cc1ccc2[nH]c3c(c2c1)-c1nc(N)ncc1CCC3 (stereo not shown) [compound 25, 1-(2-Amino-5,6,7,8-tetrahydropyrimido[4′,5′:3,4]cyclohepta[1,2-b]indol-11-yl)-3-methylpent-1-yn-3-ol]
IC50 [4, 16]: < 20 nM

Nc1ncc2c(n1)-c1c([nH]c3ccc(C4CC4)cc13)CCCC2 [compound 30, 12-Cyclopropyl-6,7,8,9-tetrahydro-5H-pyrimido[4′,5′:3,4]cycloocta[1,2-b]indol-2-amine]
entry of lentivirus pseudotyped with SARS-CoV-2 spike glycoprotein [2]: did not inhibit pseudoviral entry | entry of bald lentivirus [3]: entry of bald lentivirus was not impacted | inhibition of viral replication (MHV-nLuc), in words [12]: failed to inhibit viral replication | IC50 [12]: 10 µM | His6-SARS-CoV-2 spike protein uptake [6]: no effect on spike protein uptake | toxicity to A549-ACE2 cells [15]: did not inhibit SARS-CoV-2 replication or elicit any toxicity | # scanMAX kinases with PoC < 10 [1]: 1 | effect on cell viability in DBT cells [8]: nontoxic up to 10 μM | inhibition of SARS-CoV-2 replication, in words ([13]; A549-ACE2 cells): did not inhibit SARS-CoV-2 replication

CC(C)(O)C#Cc1ccc2[nH]c3c(c2c1)-c1nc(N)ncc1CCCC3 [compound 2, 4-(2-Amino-6,7,8,9-tetrahydro-5H-pyrimido[4′,5′:3,4]cycloocta[1,2-b]indol-12-yl)-2-methylbut-3-yn-2-ol]
# scanMAX kinases with PoC < 10 [1]: 3

Nc1ncc2c(n1)-c1c([nH]c3ccc(C#Cc4ccncc4)cc13)CC2 [compound 4, 10-(Pyridin-4-ylethynyl)-6,7-dihydro-5H-pyrimido[5,4-c]carbazol-2-amine]
# scanMAX kinases with PoC < 10 [1]: 1

CC(O)C#Cc1ccc2[nH]c3c(c2c1)-c1nc(N)ncc1CCC3 (stereo not shown) [compound 21, 4-(2-Amino-5,6,7,8-tetrahydropyrimido[4′,5′:3,4]cyclohepta[1,2-b]indol-11-yl)but-3-yn-2-ol]
IC50 [4, 16]: < 20 nM

Cn1cc(-c2ccc3[nH]c4c(c3c2)-c2nc(N)ncc2CC4)cn1 [compound 12, 10-(1-Methyl-1H-pyrazol-4-yl)-6,7-dihydro-5H-pyrimido[5,4-c]carbazol-2-amine]
# scanMAX kinases with PoC < 10 [1]: 7

Cn1cc(-c2ccc3[nH]c4c(c3c2)-c2nc(N)ncc2CCC4)cn1 [compound 13, 11-(1-Methyl-1H-pyrazol-4-yl)-5,6,7,8-tetrahydropyrimido[4′,5′:3,4]cyclohepta[1,2-b]indol-2-amine]
# scanMAX kinases with PoC < 10 [1]: 8

CC(C)(O)C#Cc1ccc2[nH]c3c(c2c1)-c1nc(N)ncc1CCC3 [AMG28, 4-(2-Amino-5,6,7,8-tetrahydropyrimido[4′,5′:3,4]cyclohepta[1,2-b]indol-11-yl)-2-methylbut-3-yn-2-ol, reference compound]
# scanMAX kinases with PoC < 10 [1]: 21
